Data from US8809529B2, “Imidazo[1,2-α]pyrazine derivatives” (Promega Corporation, priority 2010, dated 2014).
Read-outs that look alike come from different tables or passages of the source.

How the values were obtained:
[1] = Luminescence screen of OgLuc variants in lysed E. coli cells; type: biochemical; conditions: QC27-9a versus C1+A4E
Procedure: Resulting libraries were expressed in E. coli and primarily screened with a robotic system for OgLuc variants having increased light output (i.e., increased luminescence, increased brightness, or increased light emission) or a change in relative specificity compared to the corresponding starting OgLuc variant. The robotic primary screen was conducted as follows: individual colonies from the generated library were used to inoculate minimal media in 96-well plates and grown at 37° C. for 17 to 20 hrs (“M1 culture”). The M1 culture was diluted 1:20 with fresh minimal media and grown at 37° C. for 17-20 hrs (“M2 culture”). […] The use of the different induction media was determined based on the luminescence generated between C1+A4E and the novel coelenterazines, i.e., the induction media containing rhamnose and glucose were used with novel coelenterazines that generated less luminescence with C1+A4E compared to the other novel coelenterazines with C1+A4E.
Luminescence measurements for each variant were taken 3 min after reagent addition and relative luminescence unit (RLU) values were normalized to an average of 8 control wells of the corresponding starting OgLuc variant for each plate. […]

HEK293 cells [2] = experiment: Toxicity of coelenterazines in HEK293 cells (CELLTITER-GLO); conditions: 24 hrs after compound addition
HEK293 cells [3] = conditions: human, 24 h
OgLuc variant L27V = OgLuc variant L27V (Oplophorus gracilirostris, UniProt Q9GV45, A31E/A60N/A81I/F95D/I117V/K70R/L54V/L99Q/M102K/N193R/P142E/Q151K/Q38R/Q45L/V71I/Y165I); conditions: approximately 20 pM L27V, pH 6, 3 min at 22° C.
Procedure: To determine the Km of PBI-3939, the OgLuc variant L27V (described in Example 26) was purified via HALOTAG® fusion using the HALOTAG® Protein Purification System according to the manufacturer's instructions and diluted in DMEM without Phenol Red and 0.1% PRIONEX®. 50 μL assay buffer (100 mM MES pH 6, 35 mM Thiourea, 0.5% TERGITOL® NP-9 (v/v), 1 mM CDTA, 2 mM DTT and 150 mM KCl) with varying amounts of PBI-3939 was added to 50 μL diluted enzyme (approximately 20 pM final enzyme concentration), and luminescence measured at 3 min at 22° C.

L27V02 enzyme = molecular target: T1, L27V02 enzyme (Oplophorus gracilirostris, UniProt Q9GV45, A31E/A60N/A81I/F95D/I117V/K70R/L54V/L99Q/M102K/N193R/P142E/Q151K/Q38R/Q45L/V71I/Y165I); experiment: Luminescence of compounds with purified L27V02 enzyme; type: biochemical; conditions: 20 μM compound, 36 pM L27V02, pH 7, 3 min
T1 construct: The N-terminus of the OgLuc variant L27V is methionine, valine and phenylalanine, i.e., MVF; made in house
Procedure: Compounds PBI-4525, PBI-4540 and PBI-4541 were screened for their ability to detect luminescence. […] The assay reagent was then mixed with 36 pM purified L27V02 enzyme (described in Example 25B), in DMEM without Phenol Red and 0.1% PRIONEX®. As a control, assay buffer with 20 μM PBI-3939 or PBI-4528 was used. Luminescence was measured as previously described 3 min after the assay reagent was added to the enzyme mixture.

OgLuc variant 9B8 opt = molecular target: T2, OgLuc variant 9B8 opt (Oplophorus gracilirostris, UniProt Q9GV45, A31E/A60K/A81I/F95Y/I117V/L99Q/M102K/N193R/P142E/Q151K/Q38R/Q45L/V71I/Y165I); experiment: Multiplex assay with red click beetle luciferase and 9B8 opt (modified DUAL-GLO); type: biochemical
T2 construct: made in house; host or cells: E. coli (crude lysate)
Procedure: A. Lysates of E. coli expressing the variant 9B8 opt were prepared as previously described in Example 27 and diluted 1000-fold in DMEM without phenol red+0.1% PRIONEX®. Luminescence from a sample containing 6.3 μg/mL of purified red click beetle luciferase and E. coli lysate expressing the variant 9B8 opt was detected using a modified DUAL-GLO® Luciferase Assay System (Promega Corp.). DUAL-GLO® STOP&GLO® Reagent containing 20 μM coelenterazine-h and DUAL-GLO® STOP&GLO® Reagent containing 20 μM PBI 3939 were used, according to the manufacturer's protocol, to detect the red click beetle luciferase and OgLuc variant 9B8 luciferase from a single sample. Three replicates were performed.
Luminescence was detected on a Turner MODULUS™ luminometer. […] The standard deviation (“+/−”) and coefficient of variance (“CV”) are also shown. A “no coelenterazine” control was performed to illustrate the amount of quenching of the red click beetle signal by the DUAL-GLO® STOP&GLO® Reagent of the DUAL-GLO® Luciferase Assay System in the absence of coelenterazine. The “no coelenterazine” control yielded a 349-fold quench.

HEK293 cells [4] = experiment: Live cell luminescence in HEK293 cells; type: cell-based, human; conditions: HEK293 cells expressing 9B8 opt, 60 μM
Procedure: A. The use of OgLuc variants and PBI-3939 in live cells was examined. HEK293 cells were plated in 96-well plates at 15,000 cells/well and grown overnight, at 37° C. The following day, the cells were transiently transfected using TRANSIT®-LT1 in 3 replicates with 100 ng of hRL or 9B8 opt in pF4Ag and grown overnight at 37° C. The following day the growth media was removed and replaced with media containing 60 μM VIVIREN™ Live Cell Substrate (Promega Corp.), 60 μM ENDUREN™ Live Cell Substrate (Promega Corp.), or 60 μM PBI-3939 for both hRL and 9B8 opt transfected cells. Non-transfected cells were used as background control. The plate was incubated at 37° C. during the course of one day and periodically measured on a TECAN® GENIOS™ Pro luminometer, i.e., 11 times over the course of 24 hrs.

OgLuc = molecular target: T3, OgLuc (Oplophorus gracilirostris, UniProt Q9GV45, A31E/A60K/A81I/F95Y/I117V/L99Q/M102K/N193R/P142E/Q151K/Q38R/Q45L/V71I/Y165I); experiment: LOPAC library inhibition screen; type: biochemical; conditions: preliminary LOPAC screen with 9B8 variant, 20 μM substrate
T3 construct: 10 μL of purified 9B8, L27V or firefly luciferase (Luc2) enzyme; made in house
Procedure: To determine the susceptibility of the OgLuc variants to off-target interactions, the activity of the 9B8 and L27V variants was screened against a LOPAC (library of pharmacologically active compounds) library. A LOPAC 1280 library (Sigma) was prepared by diluting the compounds to 1 mM in DMSO. On the day of the assay, the compounds were diluted to 20 μM in 1×PBS, and 10 μL transferred to a 96-well, white plate. To each well, 10 μL of purified 9B8, L27V or firefly luciferase (Luc2) enzyme diluted 10^−4 in Glo Lysis Buffer (Promega Corp.) was added and incubated at room temperature for 2 min. […] For assaying firefly luciferase, the BRIGHT-GLO™ Assay reagent (Promega Corp.) was used according to the manufacturer's protocol. As a negative control, 8 wells of each plate contained 1×PBS+2% glycerol. As a positive control, 8 wells of each plate contained 2 mM Suramin in 2% DMSO or 2 mM luciferase inhibitor 1 in 2% DMSO (Calbiochem).

HEK293 cells [5] = experiment: Luminescence of luciferases in lysed HEK293 cells (codon optimization); type: cell-based, human
Procedure: Codon optimized versions of IV (“IV opt” (SEQ ID NO: 22) and “IV optB” (SEQ ID NO: 23)) and 9B8 (“9B8 opt” (SEQ ID NO: 24) and “9B8 optB” (SEQ ID NO: 25)) were generated and cloned into pF4Ag by methods known in the art. HEK293 cells were plated in 96-well plates at 15,000 cells/well and grown overnight at 37° C. The following day, the cells were transiently transfected in 6 well replicates using TRANSIT®-LT1 Transfection Reagent (Minis Bio) with 100 ng of plasmid DNA encoding the codon optimized versions in pF4Ag and grown overnight at 37° C. HEK293 cells were also transfected with either pGL4.13 (Luc2/SV40) (Paguio et al., “pGL4 Vectors: A New Generation of Luciferase Reporter Vectors” Promega Notes, 89:7-10 (2005)) or pGL4.73 (hRL/SV40) (Id.) to normalize for differences in transfection efficiency. Ten ng/transfection or 10% of the total DNA transfected was used.
The OgLuc variants had higher luminescence compared to Luc2 and hRL.

T2 sequence (Q9GV45 other isoform, or with tags, fused parts or gaps with the stated changes): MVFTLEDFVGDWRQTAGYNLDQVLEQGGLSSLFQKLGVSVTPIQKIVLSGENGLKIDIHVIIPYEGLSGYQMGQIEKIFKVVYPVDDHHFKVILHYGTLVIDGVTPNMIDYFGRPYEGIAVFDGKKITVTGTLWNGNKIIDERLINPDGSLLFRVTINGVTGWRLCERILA
T3 sequence (Q9GV45 other isoform, or with tags, fused parts or gaps with the stated changes): as above
T1 sequence (Q9GV45 28-196 with tags or gaps with the stated changes limits assumed, one chain of several): as the sequence (Q9GV45 other isoform, or with tags, fused parts or gaps with the stated changes) above, with L29V, K35N, K45R, Y70D counted along it

CC(C)c1[nH]c(-c2ccccc2)cn2c(=O)c(Cc3ccc(O)cc3)nc1-2 [PBI-3841]
Change in relative specificity (novel coelenterazine/native coelenterazine) [1]: 350,000X | Viability (normalized to vehicle (DMSO) control) (%) (HEK293 cells [2]): 100%

O=c1c(Cc2ccc(O)cc2)nc2c(C3CC3)[nH]c(-c3ccccc3)cn1-2 [PBI-3897, 8-cyclopropyl-2-(4-hydroxybenzyl)-6-phenylimidazo[1,2-a]pyrazin-3(7H)-one]
Change in relative specificity (novel coelenterazine/native coelenterazine) [1]: 80,000X | Viability (normalized to vehicle (DMSO) control) (%) (HEK293 cells [3]): 100%

O=c1c(Cc2ccco2)nc2c(Cc3ccccc3)[nH]c(-c3ccccc3)cn1-2 [PBI-3939, 8-benzyl-2-(furan-2-ylmethyl)-6-phenylimidazo[1,2-a]pyrazin-3(7H)-one]
Km (OgLuc variant L27V): ~10 µM | RLU (L27V02 enzyme): 9,808,880 RLU | Ogluc (average luminescence generated by 9B8 opt) (OgLuc variant 9B8 opt; 20 μM substrate in DUAL-GLO STOP&GLO Reagent): 2,996,940 | +/− coel (OgLuc variant 9B8 opt; Ogluc signal relative to no coelenterazine control): 207 | cell permeation (HEK293 cells [4]): can permeate cells in culture | Stability (pH 8) (T90 in hrs): 4.1 hrs | Viability (normalized to vehicle (DMSO) control) (%) (HEK293 cells [3]): 89%

Cc1ccc(C(=O)Nc2ccc(S(=O)(=O)O)c3cc(S(=O)(=O)O)cc(S(=O)(=O)O)c23)cc1NC(=O)c1cccc(NC(=O)Nc2cccc(C(=O)Nc3cc(C(=O)Nc4ccc(S(=O)(=O)O)c5cc(S(=O)(=O)O)cc(S(=O)(=O)O)c45)ccc3C)c2)c1 [Suramin]
inhibition of OgLuc (OgLuc): inhibitor of OgLuc

B1: Luc2: a firefly luciferase (protein, listed as Photinus pyralis)
chain: MEDAKNIKKGPAPFYPLEDGTAGEQLHKAMKRYALVPGTIAFTDAHIEVDITYAEYFEMSVRLAEAMKRYGLNTNHRIVVCSENSLQFFMPVLGALFIGVAVAPANDIYNERELLNSMGISQPTVVFVSKKGLQKILNVQKKLPIIQKIIIMDSKTDYQGFQSMYTFVTSHLPPGFNEYDFVPESFDRDKTIALIMNSSGSTGLPKGVALPHRTACVRFSHARDPIFGNQIIPDTAILSVVPFHHGFGMFTTLGYLICGFRVVLMYRFEEELFLRSLQDYKIQSALLVPTLFSFFAKSTLIDKYDLSNLHEIASGGAPLSKEVGEAVAKRFHLPGIRQGYGLTETTSAILITPEGDDKPGAVGKVVPFFEAKVVDLDTGKTLGVNQRGELCVRGPMIMSGYVNNPEATNALIDKDGWLHSGDIAYWDEDEHFFIVDRLKSLIKYKGYQVAPAELESILLQHPNIFDAGVAGLPDDDAGELPAAVVVLEHGKTMTEKEIVDYVASQVTTAKKLRGGVVFVDEVPKGLTGKLDARKIREILIKAKKGGKIAV
luminescence relative to hRL (HEK293 cells [5]): approximately 14 fold
